Test system: hepatocytes
Assay: In vitro liver fibrosis/toxicity model: relative cell viability of hepatocytes with CCl4-induced injury
Type: cell-based, Sprague Dawley rats
Settings: for relative cell viability: 24 h (day 1)
Method: The procedure regarding in vitro liver fibrosis model is as follows. To create an in vitro toxicity model, we used CCl4 as a known hepatotoxic agent capable of inducing severe hepatotoxicity, ultimately leading to liver fibrosis. Initially, a stock solution of CCl4 was prepared by dissolving it in DMSO to a concentration of 20%. Subsequently, hepatocytes were aliquoted into 15-mL centrifuge tubes. These hepatocytes were subjected to a 10-min toxication process with CCl4 (0.05, 0.075, 0.1, 0.15, 0.2%)-containing culture medium (serum-free). Subsequently, hepatocytes were washed three times with PBS with centrifugation at 50×g for 1 min at 4° C. Thereafter, the supernatant was carefully removed, and the final cell pellet was seeded onto 0.1 mg/mL collagen-coated Petri dish at a density of 5×10^5 cells/mL.
The procedure regarding relative cell viability and liver-specific function of in vitro HUVEC-covered hepatocyte spheroids embedded in gel cultures is as follows. To assess relative cell viability, separate media formulations were used for 2D dish and 3D gel cultures. Specifically, 10% MTT-containing medium was used for the 2D dish culture, whereas 10% CCK8-containing medium was used for evaluating the cell viability in 3D hydrogel or spheroids. For MTT analysis, after 4-h incubation, half of the supernatant was removed from each well, and an equivalent volume of DMSO was added. Following an additional 10 min of incubation, absorbance was measured at 570 nm. For CCK8 analysis, after 4 h of incubation, 100 μL of the supernatant was transferred to a 96-well plate, and absorbance was measured at 450 nm. To calculate relative cell viability from days 1 to 14, the absorbance value of hepatocytes (or hepatocyte spheroids) in the control group (only gel without cells) measured on day 1 was used as baseline (blank) to exclude the influence of the gel. The absorbance value of each experimental condition was then divided by the value of the blank to obtain relative cell viability.

SMILES: ClC(Cl)(Cl)Cl [CCl4, Carbon tetrachloride]
- relative cell viability (CCl4 concentration 0.05%): 60.53%±3.19%
- relative cell viability (CCl4 concentration 0.075%): 51.70%±5.99%
- relative cell viability (CCl4 concentration 0.1%): 28.06%±2.29%
- relative cell viability (CCl4 concentration 0.15%): 2.67%±0.25%
- relative cell viability (CCl4 concentration 0.2%): 2.46%±0.63%
- half-maximal inhibitory concentration (IC50) for hepatocytes (estimated from viability at 24 h): 0.075%
